Test results published in patent publication US8900444B2, “Switchable hydrophilicity solvents and methods of use thereof” (Queen's University at Kingston, priority 2009, dated 2014).

Legend:
Format in all cases: physicochemical
[1] = Miscibility of amines with water in the absence of CO2 (Example 5A); details: 1 mL amine + 1 mL H2O, room temperature, visual
Method: 1 mL of an appropriate amine was combined with 1 mL of H2O in a 4 mL vial, with the 1 and 2 mL volume lines marked. The vial was manually shaken and left to settle at room temperature. After the mixture settled, the number of phases was observed visually. This procedure was performed for all of the screened amines.

[2] = Miscibility of amines with water in the presence of CO2 (Example 5B); details: CO2 bubbled through amine/water mixture for at least one hour
Method: All of the amines that formed a biphasic mixture in Example 5A were subjected to the following test. Carbon dioxide was bubbled through the amine/water biphasic mixture, via a syringe needle, for at least one hour. Care was taken to regulate the rate of the CO2 bubbling, so as not to cause evaporation of the amine. The liquid-liquid interface was observed over the course of CO2 bubbling, and a photo was taken after 60 minutes.

[3] = Conversion of amine switchable hydrophilicity solvents back to hydrophobic form by heating (Example 5C); details: for loss of amine during heating (excessive volatility): 80 °C, approximately 60 minutes
Method: All of the amines identified as switchable hydrophilicity solvents in Example 5B (except N,N-dimethylbutylamine) were subjected to the following test. The vial containing the single-phase amine/water/CO2 mixture prepared in example 5B was heated in an oil bath at 80° C. for approximately 60 minutes. The mixture was magnetically stirred, and phase separation was observed throughout the course of heating. In the case of the N1,N1,N4,N4-tetraethylbutane-1,4-diamine/water/CO2 mixture, 5 hours of heating was required to switch it back to its hydrophobic form.

[4] = Separation of switchable solvent from soybean oil with CO2/carbonated water (Examples 2A, 2C)
Method: A 4 mL vial was prepared containing 1.0 mL D2O, 0.5 mL BA and 0.5 mL soybean oil. The vial was shaken thoroughly and allowed to settle, showing a 1.0 mL upper layer (soybean oil and BA) and a 1.0 mL lower layer (D2O). ^1H NMR samples (50 μL) were withdrawn from each layer and mixed with methanol-d4 (0.5 mL) containing a dioxane internal standard (51.5 mM). Another sample was withdrawn from the upper layer for ^1H NMR analysis in CDCl3, because soybean oil is not miscible with methanol. The same volume was discarded from the bottom layer to maintain the initial ratio.
CO2 was bubbled through the system for 1.5 h, at which time the top layer appeared to have halved in volume. Using the same system, ^1H NMR analysis was again conducted on both layers, the bottom layer in methanol-d4 and the top layer in CDCl3.
A 1.0 mL portion of the bottom layer was withdrawn and transferred to a new 4.0 mL vial. A magnetic stirrer was added and the vial was stirred at 80° C. for 1 h. Samples were withdrawn from both layers for ^1H NMR analysis in methanol-d4 with reference to the dioxane internal standard.
The switching behavior of BA in the presence of soybean oil was studied qualitatively and by ^1H NMR spectroscopy as shown in FIG. 11. The top spectrum is that of soy oil. The middle spectrum is that of the upper (organic) phase after the mixing of the BA, soy oil and D2O. This upper phase comprises soy oil and BA. The bottom spectrum is that of the upper (organic) phase after the addition of the CO2 trigger and comprises predominantly soy oil and any residual solvent.
The most informative ^1H NMR spectra in this experiment were those showing the separation of the soy oil and BA. Based on the integration of the peak corresponding to BA at 3.17 ppm in these spectra, 96% of the amidine was removed from the upper soybean oil layer after switching to its hydrophilic BAB form. Other spectra (not shown), collected in methanol-d4 with a dioxane internal standard, confirmed the switching behavior presented in Example 1 above, showing 11% retention of BA in the aqueous phase after heating.
It was possible to remove a high percentage of N1,N1,N4,N4-tetraethylbutane-1,4-diamine from the soybean oil be mixing with carbonated water. The percentage removal was 98.65%. In contrast, 96% of BA was removed from the soybean oil.

Structure (SMILES)	miscibility with water under air (absence of CO2) [1]	miscibility with water under air (absence of CO2) ([1]; listed as dipropylmethylamine)	miscibility with water after CO2 treatment [2]	miscibility with water after CO2 treatment ([2]; listed as dipropylmethylamine)	loss of amine during heating (excessive volatility) [3]	miscibility with water under air (absence of CO2) ([1]; listed as diethylbutylamine)	miscibility with water after CO2 treatment ([2]; listed as diethylbutylamine)	miscibility with water under air (absence of CO2) ([1]; listed as Et2NCH2CH2CH2CH2NEt2)	miscibility with water after CO2 treatment ([2]; listed as Et2NCH2CH2CH2CH2NEt2)	heating time required to switch back to hydrophobic form ([3]; amine/water/CO2 mixture, oil bath 80 °C, stirred)	solvent removed from soybean oil after switching to hydrophilic form ([4]; CO2 / carbonated water)	miscibility with soybean oil ([4]; neutral hydrophobic form)	miscibility with water under air (absence of CO2) ([1]; listed as N,N,N-triethylamine)	miscibility with water after CO2 treatment ([2]; listed as N,N,N-triethylamine)
CCCN(C)CCC [methyldipropylamine]	biphasic	immiscible with water	single-phase	became water-miscible	loss of amine	–	–	–	–	–	–	–	–	–
CCCCN(CC)CC [N,N-diethylbutylamine]	biphasic	–	single-phase	–	loss of amine	immiscible with water	became water-miscible	–	–	–	–	–	–	–
CCN(CC)CCCCN(CC)CC [N1,N1,N4,N4-tetraethylbutane-1,4-diamine]	biphasic	–	single-phase	–	–	–	–	immiscible	miscible	5 h	98.65%	miscible with soybean oil	–	–
CCN(CC)CC [triethylamine]	biphasic	–	single-phase	–	loss of amine	–	–	–	–	–	–	–	immiscible with water	became water-miscible
